Patent US20220288114A1, “MULTI-AGENT OCULAR FORMULATIONS AND TREATMENT METHODS” (University of Utah Research Foundation, priority 2019, published 2022)

Experiments:
guinea pigs = assay: Refractive error by streak retinoscopy in guinea pigs, 60-day atropine eye drop treatment; assay type: in vivo; details: .001% eye drops 2 times per day for approximately 60 days
Method: Treatment using .001% atropine sulfate monohydrate eye drops is administered at approximately 1 week of age to guinea pigs. The eye drops are administered 2 times per day for approximately 60 days. Refractive error is measured by an ophthalmologist prior to treatment on day 1 and at subsequent time-points (e.g., 14 days, 27 days, 44 days, and 62 days after the beginning of treatment) depicted in FIGS. 1A-1C. […] Stable refractive errors are typically obtained after 15 minutes when there is no pupil response.

[1] = system: LNL crosslinks in rabbit cornea; details: rabbits; 0.15 mg/ml eye drops twice a day for 6 weeks; LC-MS
Method: After six weeks each group of corneas is dissected, weighed and used for LNL analysis. Samples are reduced with NaBH4 at room temperature then washed twice with water, dried, and hydrolyzed with 6N
HCl in vacuo for 18 hours at 110° C. […] The hydrolysates are dried to evaporate HCL, reconstituted with H2O, and re-dried to remove residual HCl. Post hydrolysis, cross-link enrichment is carried out using a cellulose mini-column method. Samples are then provided for LNL analysis by mass spectroscopy (LC/MS).
To perform liquid chromatography/mass spectroscopy (LC/MS), 1 μL of 100 μg/mL d9-Lysine is added to all samples as an internal standard. A calibration curve is created using serial dilution. Semi-quantitative mass spectral analysis is performed using a Sciex 6500 Q-Trap (Sciex, Farmington, MA). A helicon iHILIC-Fusion 2.1×100 mm column (Umeå, Sweden) is used for chromatography using 10 mM NH4OAc (Buffer A) and ACN (Buffer B). LC/MS is performed in the positive mode with a TurboIon source using optimized source conditions. Quantitative data analysis is conducted using Sciex MultiQuant software.

rabbits = details: 0.15 mg/ml eye drops 2 times per day for approximately 60 days
Method: Treatment using 0.15 mg/ml copper sulfate pentahydrate in an ophthalmic vehicle is administered at approximately 6 weeks of age to rabbits. Eyedrops are administered 2 times per day for approximately 60 days. Refractive error is measured by an ophthalmologist prior to treatment on day 1 and at subsequent time-points (e.g., 14 days, 27 days, 44 days, and 62 days after the beginning of treatment) depicted in FIG. 3. […] Stable refractive errors are typically obtained after 15 minutes when there is no pupil response. FIG. 3 presents refractive error measurements for the test subjects in each eye.

cornea = details: rabbits
Source text: The Ocular Response Analyzer (ORA; Reichert, Inc, Buffalo, N.Y.) is a commercially available noncontact tonometer that also assesses the viscoelastic nature of the cornea with bidirectional detection of applanation events to allow in vivo measurements of corneal biomechanical response parameters under air puff loading 42. The system includes an infrared emitter and detector aligned such that applanation produces a spike on the detector with a mirror like reflection from the flattened corneal surface.
Two applanation pressure measurements are reported by the ORA: one while the cornea moves inward, reaching first applanation, at pressure P1, and the other after the cornea recovers from a slight concavity as it moves outward passing through a second applanation at pressure P2. Therefore, these two values, P1 and P2, indicate the pressures associated with a flattened cornea during the loading and unloading cycle, with P2<P1 for a valid measurement. The difference between P1 and P2 is termed corneal hysteresis (CH).
A greater value for Peak 1 or Peak 2 indicates a larger area of applanation which is associated with a stiffer response. Thus, for the current study the
ORA pressure and applanation signals were analyzed using custom software to determine the magnitudes of Peak 1 and Peak 2. ORA measurements were assessed at baseline and every week for 6-8 weeks on the same set of rabbits described in 2.4.b which included 4 groups Sol A, Sol B, and vehicle and no drops. An increase in Peak 1 and Peak 2 can be present after stiffening; therefore, one-tailed t-tests were used for statistical analysis to compare groups.
The times at 3, 4, 5, and 6 weeks for the combined AB (treatment Sol A and treatment Sol B) treatment group were averaged for comparison against no therapy and vehicle. Peak 1 and Peak 2 were compared to both controls.

CN1[C@@H]2CC[C@H]1CC(OC(=O)C(CO)c1ccccc1)C2.CN1[C@@H]2CC[C@H]1CC(OC(=O)C(CO)c1ccccc1)C2.O.O=S(=O)(O)O (some centres unmarked) [Atropine, atropine sulfate monohydrate]
Progression of myopia (refractive error) (guinea pigs): Slows Progression of Myopia

O.O.O.O.O.O=S(=O)([O-])[O-].[Cu+2] [copper sulfate pentahydrate]
LNL crosslinks in treated rabbit cornea compared to control (no treatment) and vehicle group [1]: significant increases | Reduction of myopic progression in the treatment eye compared to control (rabbits): approximately 63%

O=S(=O)([O-])[O-].[Cu+2] [Copper sulfate]
Corneal stiffening in vivo as measured by waveform response to air puff deformation (cornea; ORA): generates stiffening in vivo | Peak 1, treated group AB versus no therapy (cornea; weeks 3, 4, 5 and 6 averaged, combined Sol A and Sol B, one-tailed t-test p=0.0244): significantly greater than no therapy | Peak 2, treated group AB versus vehicle (cornea; weeks 3, 4, 5 and 6 averaged, combined Sol A and Sol B, p<0.0001): significantly greater | Peak 2, treated group AB versus no therapy (cornea; weeks 3, 4, 5 and 6 averaged, combined Sol A and Sol B, p=0.0098): significantly greater than no therapy | Peak 1, treated group AB versus vehicle (cornea; weeks 3, 4, 5 and 6 averaged, combined Sol A and Sol B, p=0.0763): no substantial difference
